From patent US9364477B2, “Mutant ROS expression in human cancer” (Cell Signaling Technology, Inc., priority 2009, dated 2016)

Columns and labels:
[1] = system: BaF3 expressing FIG-ROS(S); experiment: MTS cell growth assay, BaF3 expressing FIG-ROS(S); assay type: cell-based, Murine
Method: (§1) BaF3 cells were transduced with retrovirus encoding FIG-ROS(S), FIG-ROS(L), or FLT-31TD (the Internal tandem duplication mutation in FLT3 causes AML leukemia), and selected for IL3 independent growth. Karpas 299 cells, which express NPM-ALK, was used as a positive control.
(§2) After 72 hours, 20 ul of the CellTiter 96 Aqueous One Solution Reagent was added into each well of a 96 well assay plate (flat bottom), and then 100 ul of cells grown with or without treatment. Media-only wells were used as controls. The 96 well plate was incubated for 1-4 hours at 37° C., and then viable cells were counted by reading the absorbance at 490 nm using a 96 well plate reader.

[2] = system: BaF3 expressing FIG-ROS(L); experiment: MTS cell growth assay, BaF3 expressing FIG-ROS(L); assay type: cell-based, Murine; details: 0-1000 nM TAE-684, 72 hours
Method: as §1, §2

BaF3 expressing FLT3ITD = experiment: MTS cell growth assay, BaF3 transduced with FLT3/ITD; assay type: cell-based, Murine; details: 0-1000 nM TAE-684, 72 hours
Method: as §1, §2

Karpas 299 cells [3] = experiment: MTS cell growth assay, Karpas 299 cells (NPM-ALK); assay type: cell-based; details: 0-1000 nM TAE-684, 72 hours
Method: as §1, §2

[4] = system: BaF3 cells expressing FIG-ROS(S); experiment: Cleaved caspase-3 flow cytometry apoptosis assay, BaF3 FIG-ROS(S); assay type: cell-based, Murine; details: presence of TAE-684
From the text: (§3) The mechanism of death of the BaF3 and Karpas 299 cells was next reviewed by measuring the percentage of cleaved-caspase 3 positive cells by flow cytometry assay using cleaved caspase-3 as a marker for apoptosis.

[5] = system: BaF3 cells expressing FIG-ROS(L); experiment: Cleaved caspase-3 flow cytometry apoptosis assay, BaF3 FIG-ROS(L); assay type: cell-based, Murine; details: presence of TAE-684
From the text: as §3

Karpas 299 cells [6] = experiment: Cleaved caspase-3 flow cytometry apoptosis assay, Karpas 299; assay type: cell-based; details: presence of TAE-684
From the text: as §3

FIG-ROS(S) = FIG-ROS(S) (Homo sapiens, UniProt P08922); experiment: Western blotting of phosphorylation, BaF3 FIG-ROS(S); assay type: cell-based; details: 0, 10, 50, or 100 nM TAE-684 for three hours
FIG-ROS(L) = FIG-ROS(L) (Homo sapiens, UniProt P08922); experiment: Western blotting of phosphorylation, BaF3 FIG-ROS(L); assay type: cell-based; details: 0, 10, 50, or 100 nM TAE-684 for three hours
[7] = system: BaF3 cells transduced with the FLT-31TD retrovirus; experiment: Western blotting of phosphorylation, BaF3 FLT-31TD; assay type: cell-based, Murine; details: 0, 10, 50, or 100 nM TAE-684 for three hours
[8] = system: Ros (D4D6) XP™ Rabbit mAb; details: HCC78 cells; antibody 0.19 μg/ml; peptide 1.9 ug/ml
Method: Briefly, paraffin embedded HCC78 cell pellets were deparaffinized and rehydrated through three changes of xylene and graded ethanol, then rinsed in diH2O. Slides were subjected to antigen retrieval in 1.0 mM EDTA, pH 8.0 in the microwave. After blocking for 1 hour in TBST/5% goat serum, slides were incubated overnight at 4° C. with Ros (D4D6) XP™ Rabbit mAb at 0.19 μg/ml in the absence of peptide or in the presence of one of 13 different ROS peptides at 1.9 ug/ml.
After washing, detection was performed with SignalStain® Boost IHC Detection Reagent (HRP, Rabbit) #8114 and NovaRed (Vector Laboratories, Burlingame, Calif.).

Row | Compound | cellular growth response in the presence of TAE-684 ([1]; BaF3 FIG-ROS(S), 0-1000 nM TAE-684, 72 hours, MTS) | susceptibility of FIG-ROS(S) to TAE-684 compared with FIG-ROS(L) ([1]; BaF3 cells, MTS assay) | cellular growth response in the presence of TAE-684 [2] | cellular growth response in the presence of TAE-684 (BaF3 expressing FLT3ITD) | cellular growth response in the presence of TAE-684 (Karpas 299 cells [3]) | death by apoptosis (cleaved-caspase 3 positive cells) [4] | death by apoptosis (cleaved-caspase 3 positive cells) [5] | cell cycle arrest (Karpas 299 cells [6]) | death by apoptosis (cleaved-caspase 3 positive cells) (Karpas 299 cells [6]) | phosphorylation of FIG-ROS(S) (FIG-ROS(S)) | phosphorylation of STAT3, AKT, and ERK, and Shp2 (downstream signaling molecules) (FIG-ROS(S)) | phosphorylation of FIG-ROS(L) (FIG-ROS(L)) | phosphorylation of STAT3, AKT, and ERK, and Shp2 (downstream signaling molecules) (FIG-ROS(L)) | phosphorylation of STAT3, AKT, and ERK, and Shp2 [7] | competition of ROS antibody binding off the IHC slide [8]
1 | COc1cc(N2CCC(N3CCN(C)CC3)CC2)ccc1Nc1ncc(Cl)c(Nc2ccccc2S(=O)(=O)C(C)C)n1 [TAE-684] | stopped growing | less susceptible | stopped growing | not susceptible | stopped growing | die by apoptosis | die by apoptosis | underwent cell cycle arrest | did not die by apoptosis | inhibited | inhibited | inhibited | inhibited | not affected | 
2 | (biotin)AGAGVAYCPSGKPE [peptide 9] |  |  |  |  |  |  |  |  |  |  |  |  |  |  | able to compete
